Experimental findings from US20070027150A1 (priority 2005, published 2007) are described below.

The structures appear in SMILES notation.

The target in this test is His-tagged N-terminal ATP binding domain (amino acid residues 9-236) of HSP90α (Homo sapiens, UniProt P07900). Kind of test: HSP90 inhibitor binding potency: TRF competition binding assay. The following applies: Table II; read-out: Hsp90 IC50 Range. In outline:
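Competition against biotinylated radicicol for binding to the His-tagged 9-236 ATP domain of HSP90α: 2 h, room temperature, HEPES/MgCl2/KCl/BSA buffer. Streptavidin capture, then europium-labeled anti-His antibody and enhancement solution; europium counts give IC50.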
In the case of `Cc1nc(N)nc2c1C(=O)CC(c1cccc(F)c1Br)C2` (stereo not shown) [Compound 237, 2-amino-7-(2-bromo-3-fluoro-phenyl)-4-methyl-7,8-dihydro-6H-quinazolin-5-one], the IC50 lay in the range of 1000 to 10000 nM. As to `Cc1nc(N)nc2c1C(=O)CC(c1cc(F)ccc1Br)C2` (stereo not shown) [Compound 238, 2-amino-7-(2-bromo-5-fluoro-phenyl)-4-methyl-7,8-dihydro-6H-quinazolin-5-one], the IC50 was 1000 to 10000 nM. Turning to `COc1ccc(Br)c(C2CC(=O)c3c(C)nc(N)nc3C2)c1` (stereo not shown) [Compound 239, 2-amino-7-(2-bromo-5-methoxy-phenyl)-4-methyl-7,8-dihydro-6H-quinazolin-5-one], the IC50 is 1000 to 10000 nM.

On to `COc1cncc(-c2cccc(F)c2C2CC(=O)c3c(C)nc(N)nc3C2)n1` (stereo not shown) [Compound 240, 2-amino-7-[2-fluoro-6-(6-methoxy-pyrazin-2-yl)-phenyl]-4-methyl-7,8-dihydro-6H-quinazolin-5-one], for which the IC50 was in the range of 1000 to 10000 nM. Take `Cc1nc(N)nc2c1C(=O)C(NC(=O)c1ccccc1)C(c1ccccc1)C2` (stereo not shown) [Compound 241, N-(2-amino-4-methyl-5-oxo-7-phenyl-5,6,7,8-tetrahydro-quinazolin-6-yl)-benzamide]: the IC50 is over 10000 nM. As to `Cc1nc(N)nc2c1C(=O)CC(c1ccccc1)C2NC(=O)c1ccccc1` (stereo not shown) [Compound 242, N-(2-amino-4-methyl-5-oxo-7-phenyl-5,6,7,8-tetrahydro-quinazolin-8-yl)-benzamide], the IC50 is over 10000 nM. The value for `Nc1ncc2c(n1)CC(c1ccccc1-c1cccnc1F)CC2=O` (stereo not shown) [Compound 243, 2-amino-7-[2-(2-fluoro-pyridin-3-yl)-phenyl]-7,8-dihydro-6H-quinazolin-5-one] was under 1000 nM; that for `Nc1ncc2c(n1)CC(c1ccccc1Br)CC2=O` (stereo not shown) [Compound 244, 2-amino-7-(2-bromo-phenyl)-7,8-dihydro-6H-quinazolin-5-one] was over 10000 nM.

Turning to `Nc1ncc2c(n1)CC(c1ccccc1-c1cccc(F)n1)CC2=O` (stereo not shown) [Compound 245, 2-amino-7-[2-(6-fluoro-pyridin-2-yl)-phenyl]-7,8-dihydro-6H-quinazolin-5-one], the IC50 was under 1000 nM. To `COc1cccc(-c2ccccc2C2CC(=O)c3cnc(N)nc3C2)n1` (stereo not shown) [Compound 246, 2-amino-7-[2-(6-methoxy-pyridin-2-yl)-phenyl]-7,8-dihydro-6H-quinazolin-5-one] belongs under 1000 nM; to `Cc1nc(N)nc2c1C(=O)CC(c1ccccc1)C2C` (stereo not shown) [Compound 247, 2-amino-4,8-dimethyl-7-phenyl-7,8-dihydro-6H-quinazolin-5-one], 1000 to 10000 nM. To `Cc1nc(N)nc2c1C(=O)C(C)C(c1ccccc1)C2` (stereo not shown) [Compound 248, 2-amino-4,6-dimethyl-7-phenyl-7,8-dihydro-6H-quinazolin-5-one] belongs under 1000 nM. Regarding `Cc1nc(N)nc2c1C(=O)CC(c1ccc(Cl)cc1-c1cccnc1F)C2` (stereo not shown) [Compound 249, 2-amino-7-[4-chloro-2-(2-fluoro-pyridin-3-yl)-phenyl]-4-methyl-7,8-dihydro-6H-quinazolin-5-one], the IC50 is under 1000 nM.

For `Cc1nc(N)nc2c1C(=O)CC(c1ccc(Cl)cc1-c1cncnc1)C2` (stereo not shown) [Compound 250, 2-amino-7-(4-chloro-2-pyrimidin-5-yl-phenyl)-4-methyl-7,8-dihydro-6H-quinazolin-5-one], the IC50 is under 1000 nM.

With `COc1cccc(-c2cc(Cl)ccc2C2CC(=O)c3c(C)nc(N)nc3C2)n1` (stereo not shown) [Compound 251, 2-amino-7-[4-chloro-2-(6-methoxy-pyridin-2-yl)-phenyl]-4-methyl-7,8-dihydro-6H-quinazolin-5-one], the IC50 is under 1000 nM. Take `COc1ccc(-c2cccc(OC)n2)c(C2CC(=O)c3c(C)nc(N)nc3C2)c1` (stereo not shown) [Compound 252, 2-amino-7-[5-methoxy-2-(6-methoxy-pyridin-2-yl)-phenyl]-4-methyl-7,8-dihydro-6H-quinazolin-5-one]: the IC50 was under 1000 nM. The value for `COc1ccc(-c2cccnc2OC)c(C2CC(=O)c3c(C)nc(N)nc3C2)c1` (stereo not shown) [Compound 253, 2-amino-7-[5-methoxy-2-(2-methoxy-pyridin-3-yl)-phenyl]-4-methyl-7,8-dihydro-6H-quinazolin-5-one] was under 1000 nM.

On to `COc1ccc(-c2cncc(OC)n2)c(C2CC(=O)c3c(C)nc(N)nc3C2)c1` (stereo not shown) [Compound 254, 2-amino-7-[5-methoxy-2-(6-methoxy-pyrazin-2-yl)-phenyl]-4-methyl-7,8-dihydro-6H-quinazolin-5-one], for which the IC50 was under 1000 nM. The value for `Cc1nc(N)nc2c1C(=O)CC(c1ccc(F)cc1OC1CCCC1)C2` (stereo not shown) [Compound 255, 2-amino-7-(2-cyclopentyloxy-4-fluoro-phenyl)-4-methyl-7,8-dihydro-6H-quinazolin-5-one] was under 1000 nM. To `COc1cccc(-c2cc(F)c(C3CC(=O)c4c(C)nc(N)nc4C3)c(F)c2)n1` (stereo not shown) [Compound 256, 2-amino-7-[2,6-difluoro-4-(6-methoxy-pyridin-2-yl)-phenyl]-4-methyl-7,8-dihydro-6H-quinazolin-5-one] belongs over 10000 nM; to `COc1ccnc(-c2cc(F)ccc2C2CC(=O)c3c(C)nc(N)nc3C2)n1` (stereo not shown) [Compound 257, 2-amino-7-[4-fluoro-2-(4-methoxy-pyrimidin-2-yl)-phenyl]-4-methyl-7,8-dihydro-6H-quinazolin-5-one], under 1000 nM; to `COc1nccc(-c2cc(F)ccc2C2CC(=O)c3c(C)nc(N)nc3C2)n1` (stereo not shown) [Compound 258, 2-amino-7-[4-fluoro-2-(2-methoxy-pyrimidin-4-yl)-phenyl]-4-methyl-7,8-dihydro-6H-quinazolin-5-one], over 10000 nM. To `COc1nc(-c2cc(F)ccc2C2CC(=O)c3c(C)nc(N)nc3C2)ncc1C` (stereo not shown) [Compound 259, 2-amino-7-[4-fluoro-2-(4-methoxy-5-methyl-pyrimidin-2-yl)-phenyl]-4-methyl-7,8-dihydro-6H-quinazolin-5-one] belongs under 1000 nM; to `COc1cccc(-c2cc(F)ccc2[C@H]2CC(=O)c3c(C)nc(N)nc3C2)n1` [Compound 260, (R)-2-amino-7-[4-fluoro-2-(6-methoxy-pyridin-2-yl)-phenyl]-4-methyl-7,8-dihydro-6H-quinazolin-5-one], 1000 to 10000 nM.

In the case of `COc1cccc(-c2cc(F)ccc2[C@@H]2CC(=O)c3c(C)nc(N)nc3C2)n1` [Compound 261, (S)-2-amino-7-[4-fluoro-2-(6-methoxy-pyridin-2-yl)-phenyl]-4-methyl-7,8-dihydro-6H-quinazolin-5-one], the IC50 is under 1000 nM. The value for `Cc1nc(N)nc2c1C(=O)CC(c1ccc(F)cc1OCCC1CC1)C2` (stereo not shown) [Compound 262, 2-amino-7-[2-(2-cyclopropyl-ethoxy)-4-fluoro-phenyl]-4-methyl-7,8-dihydro-6H-quinazolin-5-one] was under 1000 nM. The value for `Cc1nc(N)nc2c1C(=O)CC(c1ccc(F)cc1OCC1CCCC1)C2` (stereo not shown) [Compound 263, 2-amino-7-(2-cyclopentylmethoxy-4-fluoro-phenyl)-4-methyl-7,8-dihydro-6H-quinazolin-5-one] was under 1000 nM; that for `Cc1nc(N)nc2c1C(=O)CC(c1ccc(F)cc1-c1cccc(O)n1)C2` (stereo not shown) [Compound 264, 2-amino-7-[4-fluoro-2-(6-hydroxy-pyridin-2-yl)-phenyl]-4-methyl-7,8-dihydro-6H-quinazolin-5-one] was 1000 to 10000 nM. To `Cc1nc(N)nc2c1C(=O)CC(c1ccc(F)cc1OCc1ccccc1)C2` (stereo not shown) [Compound 265, 2-amino-7-(2-benzyloxy-4-fluoro-phenyl)-4-methyl-7,8-dihydro-6H-quinazolin-5-one] belongs 1000 to 10000 nM; to `Cc1nc(N)nc2c1C(=O)CC(c1ccc(F)cc1OCC(C)C)C2` (stereo not shown) [Compound 266, 2-amino-7-(4-fluoro-2-isobutoxy-phenyl)-4-methyl-7,8-dihydro-6H-quinazolin-5-one], under 1000 nM. `CCC(CC)Oc1cc(F)ccc1C1CC(=O)c2c(C)nc(N)nc2C1` (stereo not shown) [Compound 267, 2-amino-7-[2-(1-ethyl-propoxy)-4-fluoro-phenyl]-4-methyl-7,8-dihydro-6H-quinazolin-5-one]: the IC50 was under 1000 nM.

In the case of `Cc1nc(N)nc2c1C(=O)CC(c1ccc(F)cc1OC1CCCC1C)C2` (stereo not shown) [Compound 268, 2-amino-7-[4-fluoro-2-(2-methyl-cyclopentyloxy)-phenyl]-4-methyl-7,8-dihydro-6H-quinazolin-5-one], the IC50 is under 1000 nM. To `Cc1nc(N)nc2c1C(=O)CC(c1ccc(F)cc1-c1cnc(N)nc1)C2` (stereo not shown) [Compound 269, 2-amino-7-[2-(2-amino-pyrimidin-5-yl)-4-fluoro-phenyl]-4-methyl-7,8-dihydro-6H-quinazolin-5-one] belongs 1000 to 10000 nM; to `Cc1nc(N)nc2c1C(=O)CC(c1ccc(F)cc1-c1ncc(C(F)(F)F)cn1)C2` (stereo not shown) [Compound 270, 2-amino-7-[4-fluoro-2-(5-trifluoromethyl-pyrimidin-2-yl)-phenyl]-4-methyl-7,8-dihydro-6H-quinazolin-5-one], under 1000 nM; to `COc1nc(-c2cc(F)ccc2C2CC(=O)c3c(C)nc(N)nc3C2)ncc1Cl` (stereo not shown) [Compound 272, 2-amino-7-[2-(5-chloro-4-methoxy-pyrimidin-2-yl)-4-fluoro-phenyl]-4-methyl-7,8-dihydro-6H-quinazolin-5-one], under 1000 nM. On to `COc1nc(Cl)ncc1-c1cc(F)ccc1C1CC(=O)c2c(C)nc(N)nc2C1` (stereo not shown) [Compound 273, 2-amino-7-[2-(2-chloro-4-methoxy-pyrimidin-5-yl)-4-fluoro-phenyl]-4-methyl-7,8-dihydro-6H-quinazolin-5-one], for which the IC50 was under 1000 nM. `COc1nc(-c2cc(F)ccc2[C@H]2CC(=O)c3c(C)nc(N)nc3C2)ncc1C` [Compound 274, (R)-2-amino-7-[4-fluoro-2-(4-methoxy-5-methyl-pyrimidin-2-yl)-phenyl]-4-methyl-7,8-dihydro-6H-quinazolin-5-one]: the IC50 is under 1000 nM.
